Measurements: the supplement of paper PMC10307832

Legend:
Assay in all cases: relative viability (nuclei count vs DMSO), 5 days (fraction); higher = more cells survive
[1] = compound: CC(=O)Nc1cccc(-n2c(=O)n(C3CC3)c(=O)c3c(Nc4ccc(I)cc4F)n(C)c(=O)c(C)c32)c1 [Trametinib] + O=C(c1cc(Cc2n[nH]c(=O)c3ccccc23)ccc1F)N1CCN(C(=O)C2CC2)CC1 [Olaparib] (partner 8 µM)
In short: (§1)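 Relative viability divides the nuclei count in treated wells by that in vehicle wells. Lung cancer cell lines were seeded in 1536-well plates, dosed by pin tool the next day, and fixed and stained after 5 days in one step with final 0.05% Triton X-100, 1% formaldehyde and 1 ug/ml Hoechst. Dosing was a single drug or a fixed anchor-drug dose plus five library-drug doses (not always all listed) in √10 steps, and values are medians of duplicate plates imaged at 4×.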

[2] = compound: CN1C=C(C2=CC=CC=C21)/C=C\3/C4=C(C=CC=N4)NC3=O + NC(=O)Nc1cc(-c2cccc(F)c2)sc1C(=O)N[C@H]1CCCNC1 [AZD7762] (partner 0.2 µM)
In short: as §1

[3] = compound: CN1C=C(C2=CC=CC=C21)/C=C\3/C4=C(C=CC=N4)NC3=O + COc1cccc2cc(-c3nc([C@H]4CC[C@H](C(=O)O)CC4)n4ncnc(N)c34)[nH]c12 [OSI-027] (partner 0.5 µM)
In short: as §1

[4] = compound: CC(=O)Nc1cccc(-n2c(=O)n(C3CC3)c(=O)c3c(Nc4ccc(I)cc4F)n(C)c(=O)c(C)c32)c1 [Trametinib] + CCNC(=O)c1noc(-c2cc(C(C)C)c(O)cc2O)c1-c1ccc(CN2CCOCC2)cc1 [Luminespib] (partner 0.01 µM)
In short: as §1

NCI-H2087
relative viability ([1]; first compound 0.0025 µM): 0.463 | relative viability ([1]; first compound 0.007906 µM): 0.379 | relative viability ([1]; first compound 0.025 µM): 0.249 | relative viability ([1]; first compound 0.07906 µM): 0.123 | relative viability ([1]; first compound 0.25 µM): 0.18 | relative viability ([2]; first compound 0.02 µM): 1.41 | relative viability ([2]; first compound 0.06325 µM): 1.33 | relative viability ([2]; first compound 0.2 µM): 1.31 | relative viability ([2]; first compound 0.6325 µM): 1.22 | relative viability ([2]; first compound 2 µM): 1.37 | relative viability ([3]; first compound 0.02 µM): 0.75 | relative viability ([3]; first compound 0.06325 µM): 0.403 | relative viability ([3]; first compound 0.2 µM): 0.47 | relative viability ([3]; first compound 0.6325 µM): 0.642 | relative viability ([3]; first compound 2 µM): 0.587 | relative viability ([4]; first compound 0.0025 µM): 0.17 | relative viability ([4]; first compound 0.007906 µM): 0.137 | relative viability ([4]; first compound 0.025 µM): 0.137 | relative viability ([4]; first compound 0.07906 µM): 0.141 | relative viability ([4]; first compound 0.25 µM): 0.148

NCI-H322M
relative viability ([1]; first compound 0.0025 µM): 0.652 | relative viability ([1]; first compound 0.007906 µM): 0.631 | relative viability ([1]; first compound 0.025 µM): 0.689 | relative viability ([1]; first compound 0.07906 µM): 0.518 | relative viability ([1]; first compound 0.25 µM): 0.595 | relative viability ([2]; first compound 0.02 µM): 0.58 | relative viability ([2]; first compound 0.06325 µM): 0.488 | relative viability ([2]; first compound 0.2 µM): 0.509 | relative viability ([2]; first compound 0.6325 µM): 0.592 | relative viability ([2]; first compound 2 µM): 0.617 | relative viability ([3]; first compound 0.02 µM): 0.516 | relative viability ([3]; first compound 0.06325 µM): 0.487 | relative viability ([3]; first compound 0.2 µM): 0.4 | relative viability ([3]; first compound 0.6325 µM): 0.587 | relative viability ([3]; first compound 2 µM): 0.567 | relative viability ([4]; first compound 0.0025 µM): 0.749 | relative viability ([4]; first compound 0.007906 µM): 0.634 | relative viability ([4]; first compound 0.025 µM): 0.471 | relative viability ([4]; first compound 0.07906 µM): 0.473 | relative viability ([4]; first compound 0.25 µM): 0.404

NCI-H1734
relative viability ([1]; first compound 0.0025 µM): 0.632 | relative viability ([1]; first compound 0.007906 µM): 0.578 | relative viability ([1]; first compound 0.07906 µM): 0.59 | relative viability ([1]; first compound 0.25 µM): 0.431 | relative viability ([2]; first compound 0.02 µM): 0.521 | relative viability ([2]; first compound 0.06325 µM): 0.537 | relative viability ([2]; first compound 0.6325 µM): 0.546 | relative viability ([2]; first compound 2 µM): 0.559 | relative viability ([3]; first compound 0.02 µM): 0.581 | relative viability ([3]; first compound 0.06325 µM): 0.631 | relative viability ([3]; first compound 0.6325 µM): 0.68 | relative viability ([3]; first compound 2 µM): 0.565 | relative viability ([4]; first compound 0.0025 µM): 0.208 | relative viability ([4]; first compound 0.007906 µM): 0.169 | relative viability ([4]; first compound 0.025 µM): 0.173 | relative viability ([4]; first compound 0.07906 µM): 0.149 | relative viability ([4]; first compound 0.25 µM): 0.15

EKVX
relative viability ([1]; first compound 0.0025 µM): 0.795 | relative viability ([1]; first compound 0.007906 µM): 0.66 | relative viability ([1]; first compound 0.025 µM): 0.61 | relative viability ([1]; first compound 0.07906 µM): 0.472 | relative viability ([1]; first compound 0.25 µM): 0.316 | relative viability ([2]; first compound 0.02 µM): 0.676 | relative viability ([2]; first compound 0.6325 µM): 0.644 | relative viability ([2]; first compound 2 µM): 0.607 | relative viability ([3]; first compound 0.02 µM): 0.589 | relative viability ([3]; first compound 0.06325 µM): 0.434 | relative viability ([3]; first compound 0.2 µM): 0.855 | relative viability ([3]; first compound 0.6325 µM): 0.682 | relative viability ([3]; first compound 2 µM): 0.627 | relative viability ([4]; first compound 0.0025 µM): 0.864 | relative viability ([4]; first compound 0.007906 µM): 0.767 | relative viability ([4]; first compound 0.025 µM): 0.331 | relative viability ([4]; first compound 0.07906 µM): 0.446 | relative viability ([4]; first compound 0.25 µM): 0.351

NCI-H596
relative viability ([1]; first compound 0.0025 µM): 0.664 | relative viability ([1]; first compound 0.007906 µM): 0.594 | relative viability ([1]; first compound 0.025 µM): 0.589 | relative viability ([1]; first compound 0.07906 µM): 0.516 | relative viability ([1]; first compound 0.25 µM): 0.463 | relative viability ([2]; first compound 0.02 µM): 1 | relative viability ([2]; first compound 0.06325 µM): 1.04 | relative viability ([2]; first compound 0.2 µM): 0.92 | relative viability ([2]; first compound 0.6325 µM): 1 | relative viability ([2]; first compound 2 µM): 1.21 | relative viability ([3]; first compound 0.02 µM): 0.656 | relative viability ([3]; first compound 0.06325 µM): 0.764 | relative viability ([3]; first compound 0.2 µM): 0.566 | relative viability ([3]; first compound 0.6325 µM): 0.692 | relative viability ([3]; first compound 2 µM): 0.633 | relative viability ([4]; first compound 0.0025 µM): 0.901 | relative viability ([4]; first compound 0.007906 µM): 0.775 | relative viability ([4]; first compound 0.025 µM): 0.65 | relative viability ([4]; first compound 0.07906 µM): 0.727 | relative viability ([4]; first compound 0.25 µM): 0.523

NCI-H1975
relative viability ([1]; first compound 0.0025 µM): 0.816 | relative viability ([1]; first compound 0.007906 µM): 0.633 | relative viability ([1]; first compound 0.025 µM): 0.566 | relative viability ([1]; first compound 0.07906 µM): 0.376 | relative viability ([1]; first compound 0.25 µM): 0.322 | relative viability ([2]; first compound 0.02 µM): 0.893 | relative viability ([2]; first compound 0.06325 µM): 0.811 | relative viability ([2]; first compound 0.2 µM): 0.62 | relative viability ([2]; first compound 0.6325 µM): 0.602 | relative viability ([2]; first compound 2 µM): 0.542 | relative viability ([3]; first compound 0.02 µM): 0.698 | relative viability ([3]; first compound 0.06325 µM): 0.739 | relative viability ([3]; first compound 0.2 µM): 0.828 | relative viability ([3]; first compound 0.6325 µM): 0.646 | relative viability ([3]; first compound 2 µM): 0.449 | relative viability ([4]; first compound 0.0025 µM): 0.207 | relative viability ([4]; first compound 0.007906 µM): 0.177 | relative viability ([4]; first compound 0.025 µM): 0.155 | relative viability ([4]; first compound 0.07906 µM): 0.183 | relative viability ([4]; first compound 0.25 µM): 0.171

NCI-H2170
relative viability ([1]; first compound 0.0025 µM): 0.654 | relative viability ([1]; first compound 0.007906 µM): 0.609 | relative viability ([1]; first compound 0.07906 µM): 0.548 | relative viability ([1]; first compound 0.25 µM): 0.52 | relative viability ([2]; first compound 0.02 µM): 0.86 | relative viability ([2]; first compound 0.06325 µM): 0.811 | relative viability ([2]; first compound 0.2 µM): 0.581 | relative viability ([2]; first compound 0.6325 µM): 0.825 | relative viability ([2]; first compound 2 µM): 0.761 | relative viability ([3]; first compound 0.02 µM): 0.718 | relative viability ([3]; first compound 0.06325 µM): 0.69 | relative viability ([3]; first compound 0.2 µM): 0.55 | relative viability ([3]; first compound 0.6325 µM): 0.764 | relative viability ([3]; first compound 2 µM): 0.668 | relative viability ([4]; first compound 0.0025 µM): 0.58 | relative viability ([4]; first compound 0.007906 µM): 0.749 | relative viability ([4]; first compound 0.025 µM): 0.399 | relative viability ([4]; first compound 0.07906 µM): 0.559 | relative viability ([4]; first compound 0.25 µM): 0.431

NCI-H1666
relative viability ([1]; first compound 0.0025 µM): 0.735 | relative viability ([1]; first compound 0.007906 µM): 0.699 | relative viability ([1]; first compound 0.025 µM): 0.706 | relative viability ([1]; first compound 0.07906 µM): 0.755 | relative viability ([1]; first compound 0.25 µM): 0.726 | relative viability ([2]; first compound 0.02 µM): 0.896 | relative viability ([2]; first compound 0.06325 µM): 0.79 | relative viability ([2]; first compound 0.2 µM): 0.826 | relative viability ([2]; first compound 0.6325 µM): 0.742 | relative viability ([2]; first compound 2 µM): 0.871 | relative viability ([3]; first compound 0.02 µM): 0.853 | relative viability ([3]; first compound 0.06325 µM): 0.914 | relative viability ([3]; first compound 0.2 µM): 0.842 | relative viability ([3]; first compound 0.6325 µM): 0.729 | relative viability ([3]; first compound 2 µM): 0.818 | relative viability ([4]; first compound 0.0025 µM): 0.95 | relative viability ([4]; first compound 0.007906 µM): 0.912 | relative viability ([4]; first compound 0.025 µM): 0.717 | relative viability ([4]; first compound 0.07906 µM): 0.72 | relative viability ([4]; first compound 0.25 µM): 0.573
